Results reported in ChEMBL document CHEMBL1909046, “DrugMatrix in vitro pharmacology data”.

Key:
[1] = DRUGMATRIX: Sigma2 radioligand binding (ligand: [3H] Ifenprodil); assay type: cell membranes, Rattus norvegicus, Wistar, Brain, Membrane; conditions: Not Active = under 50% inhibition at 10 µM
[2] = molecular target: T1, Amine oxidase [flavin-containing] A (Homo sapiens, UniProt P21397); assay: DRUGMATRIX: Monoamine Oxidase MAO-A enzyme inhibition (substrate: Kynuramine); design: species or system BTI-TN-5B1-4; conditions: Not Active = under 50% inhibition at 10 µM
T1 sequence (P21397 whole entry): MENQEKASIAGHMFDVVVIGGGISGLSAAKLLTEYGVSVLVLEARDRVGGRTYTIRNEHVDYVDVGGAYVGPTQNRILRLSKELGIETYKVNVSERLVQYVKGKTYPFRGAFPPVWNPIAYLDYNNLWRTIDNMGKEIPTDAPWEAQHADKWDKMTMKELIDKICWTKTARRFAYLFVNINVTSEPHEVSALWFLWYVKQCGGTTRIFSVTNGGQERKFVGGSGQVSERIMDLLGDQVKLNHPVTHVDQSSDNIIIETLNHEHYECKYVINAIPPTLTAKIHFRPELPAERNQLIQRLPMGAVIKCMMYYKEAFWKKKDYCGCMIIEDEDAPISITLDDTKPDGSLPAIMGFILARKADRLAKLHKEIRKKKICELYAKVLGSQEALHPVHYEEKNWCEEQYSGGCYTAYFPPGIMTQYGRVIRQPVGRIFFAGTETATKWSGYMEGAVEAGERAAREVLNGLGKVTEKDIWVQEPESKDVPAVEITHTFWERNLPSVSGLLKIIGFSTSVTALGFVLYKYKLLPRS

[3] = DRUGMATRIX: Phosphodiesterase PDE4 enzyme inhibition (substrate: [3H]cAMP + cAMP); conditions: u-937; Not Active = under 50% inhibition at 10 µM
[4] = molecular target: T2, 5-hydroxytryptamine receptor 1A (Rattus norvegicus, UniProt P19327); assay type: cell membranes, Membrane; conditions: cho-k1; note: in other assays of this panel Not Active means under 50% inhibition at 10 µM
T2 sequence (P19327 whole entry): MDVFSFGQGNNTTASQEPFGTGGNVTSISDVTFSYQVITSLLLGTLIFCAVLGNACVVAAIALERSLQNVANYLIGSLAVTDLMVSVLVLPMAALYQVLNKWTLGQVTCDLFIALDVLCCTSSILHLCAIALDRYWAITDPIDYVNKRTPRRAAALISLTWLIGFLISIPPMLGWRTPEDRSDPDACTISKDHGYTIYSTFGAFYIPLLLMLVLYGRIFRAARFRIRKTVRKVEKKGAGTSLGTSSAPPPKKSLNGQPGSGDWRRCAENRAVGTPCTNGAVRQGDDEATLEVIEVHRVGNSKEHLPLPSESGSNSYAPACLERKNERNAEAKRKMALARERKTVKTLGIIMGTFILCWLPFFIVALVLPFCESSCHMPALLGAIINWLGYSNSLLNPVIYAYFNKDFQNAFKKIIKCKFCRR

[5] = molecular target: 5-hydroxytryptamine receptor 1B (Rattus norvegicus, UniProt P28564); assay type: cell membranes, Wistar, Cerebral cortex, Membrane; note: in other assays of this panel Not Active means under 50% inhibition at 10 µM
[6] = molecular target: T3, Receptor-type tyrosine-protein phosphatase C (Homo sapiens, UniProt P08575); design: species or system Escherichia coli;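 note: inhibition of CD45 enzyme activity measured using DiFMUP as substrate; in other assays of this panel Not Active means under 50% inhibition at 10 µM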
T3 sequence (P08575 whole entry): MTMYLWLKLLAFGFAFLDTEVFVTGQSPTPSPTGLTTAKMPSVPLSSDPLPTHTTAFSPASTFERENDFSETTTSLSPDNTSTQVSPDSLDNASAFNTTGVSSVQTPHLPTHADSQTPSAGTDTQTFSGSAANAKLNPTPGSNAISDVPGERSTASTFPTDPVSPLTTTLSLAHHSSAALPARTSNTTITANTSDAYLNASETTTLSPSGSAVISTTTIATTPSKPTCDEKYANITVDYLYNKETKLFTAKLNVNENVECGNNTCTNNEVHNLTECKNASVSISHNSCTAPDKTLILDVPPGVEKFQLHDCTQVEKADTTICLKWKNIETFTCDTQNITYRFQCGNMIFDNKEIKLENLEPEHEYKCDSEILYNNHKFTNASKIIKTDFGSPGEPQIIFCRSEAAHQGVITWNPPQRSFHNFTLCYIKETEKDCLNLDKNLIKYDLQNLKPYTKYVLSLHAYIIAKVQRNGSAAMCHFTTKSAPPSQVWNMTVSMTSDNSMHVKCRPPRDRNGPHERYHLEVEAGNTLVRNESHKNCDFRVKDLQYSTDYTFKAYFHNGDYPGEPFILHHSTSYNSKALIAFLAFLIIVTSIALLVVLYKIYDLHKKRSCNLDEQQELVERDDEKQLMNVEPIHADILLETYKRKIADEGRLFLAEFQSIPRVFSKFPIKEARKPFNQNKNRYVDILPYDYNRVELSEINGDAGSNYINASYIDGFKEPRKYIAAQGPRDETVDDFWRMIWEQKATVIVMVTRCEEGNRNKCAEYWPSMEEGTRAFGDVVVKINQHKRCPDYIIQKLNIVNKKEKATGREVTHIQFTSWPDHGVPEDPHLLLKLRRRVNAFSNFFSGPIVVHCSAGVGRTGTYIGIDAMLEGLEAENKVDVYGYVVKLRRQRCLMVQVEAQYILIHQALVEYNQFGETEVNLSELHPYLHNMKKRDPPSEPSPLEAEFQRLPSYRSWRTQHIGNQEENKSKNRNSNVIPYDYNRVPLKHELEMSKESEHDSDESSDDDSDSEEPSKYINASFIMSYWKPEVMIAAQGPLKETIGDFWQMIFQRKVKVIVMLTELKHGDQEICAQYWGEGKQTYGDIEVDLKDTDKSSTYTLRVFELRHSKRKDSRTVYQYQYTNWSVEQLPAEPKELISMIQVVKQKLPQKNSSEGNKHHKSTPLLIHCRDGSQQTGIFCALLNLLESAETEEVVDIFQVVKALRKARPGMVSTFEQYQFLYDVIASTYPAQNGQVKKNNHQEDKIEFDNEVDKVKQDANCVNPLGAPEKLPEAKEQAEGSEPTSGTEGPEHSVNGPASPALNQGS

Chain of 5-hydroxytryptamine receptor 1B (P28564 whole entry): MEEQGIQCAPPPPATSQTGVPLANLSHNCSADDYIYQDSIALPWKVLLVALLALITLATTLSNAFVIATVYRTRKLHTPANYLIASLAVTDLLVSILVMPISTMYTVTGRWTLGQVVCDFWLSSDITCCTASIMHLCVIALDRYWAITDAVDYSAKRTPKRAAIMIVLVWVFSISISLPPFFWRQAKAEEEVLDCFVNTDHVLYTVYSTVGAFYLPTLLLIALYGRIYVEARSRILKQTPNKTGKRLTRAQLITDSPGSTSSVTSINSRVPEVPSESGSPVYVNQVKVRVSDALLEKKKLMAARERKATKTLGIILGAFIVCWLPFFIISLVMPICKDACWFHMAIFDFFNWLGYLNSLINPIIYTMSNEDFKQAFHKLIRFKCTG

Compound	IC50 [1]	Ki [1]	IC50 ([2]; bti-tn-5b1-4)	IC50 [3]	Ki [3]	IC50 [4]	IC50 [5]	IC50 [6]	IC50 ([2]; read-out: IC50) [nM]	Ki ([2]; bti-tn-5b1-4)	Ki [4]	Ki [5]	Ki [6]	IC50 ([1]; read-out: IC50) [nM]	Ki ([1]; read-out: Ki) [nM]	IC50 ([5]; read-out: IC50) [nM]	Ki ([5]; read-out: Ki) [nM]
CC(C)(Oc1ccc(C2CCCc3ccccc32)cc1)C(=O)O (stereo not drawn) [NAFENOPIN]	Not Active	Not Active	Not Active	Not Active	Not Active	Not Active	Not Active	Not Active									
Cc1cc2cc3c(C)cc(=O)oc3c(C)c2o1 [TRIOXSALEN]	Not Active	Not Active		Not Active	Not Active	Not Active	Not Active	Not Active	831								
Oc1ccc(OCc2ccccc2)cc1 [MONOBENZONE]	Not Active	Not Active	Not Active	Not Active	Not Active	Not Active	Not Active	Not Active									
COc1cccc2c1C(=O)c1c(O)c3c(c(O)c1C2=O)C[C@@](O)(C(=O)CO)C[C@@H]3O[C@H]1C[C@H](N)[C@@H](O)[C@H](C)O1 [EPIRUBICIN]	Not Active	Not Active	Not Active	Not Active	Not Active	Not Active	Not Active	Not Active									
C#C[C@]1(O)CC[C@H]2[C@@H]3CCc4cc(OC)ccc4[C@H]3CC[C@@]21C [MESTRANOL]	Not Active	Not Active	Not Active	Not Active	Not Active	Not Active	Not Active	Not Active									
CN(C)c1ccc(C(=C2C=CC(=[N+](C)C)C=C2)c2ccc(N(C)C)cc2)cc1.[Cl-] [GENTIAN VIOLET]	Not Active	Not Active	Not Active	Not Active	Not Active	Not Active	Not Active	Not Active									
CC(=O)Nc1ccc(O)cc1 [ACETAMINOPHEN]	Not Active	Not Active	Not Active	Not Active	Not Active	Not Active	Not Active	Not Active									
CCCCN1CCCCC1C(=O)Nc1c(C)cccc1C.Cl (stereo not drawn) [BUPIVACAINE HYDROCHLORIDE]	Not Active	Not Active	Not Active	Not Active	Not Active	Not Active	Not Active	Not Active									
Nc1ccn([C@@H]2CS[C@H](CO)O2)c(=O)n1 [LAMIVUDINE]	Not Active	Not Active	Not Active	Not Active	Not Active	Not Active	Not Active	Not Active									
COP(=O)(OC)OC=C(Cl)Cl [DICHLORVOS]	Not Active	Not Active	Not Active	Not Active	Not Active	Not Active	Not Active	Not Active									
CADMIUM DICHLORIDE	Not Active	Not Active	Not Active	Not Active	Not Active	Not Active	Not Active	Not Active		Not Active	Not Active	Not Active	Not Active				
C[C@](O)(CS(=O)(=O)c1ccc(F)cc1)C(=O)Nc1ccc(C#N)c(C(F)(F)F)c1 [(R)-BICALUTAMIDE]	Not Active	Not Active	Not Active	Not Active	Not Active	Not Active	Not Active	Not Active									
Cc1nccn1CC1CCc2c(c3ccccc3n2C)C1=O (stereo not drawn) [ONDANSETRON]	Not Active	Not Active	Not Active	Not Active	Not Active	Not Active	Not Active	Not Active									
CCOC(=O)[C@H](CCc1ccccc1)N[C@H]1CCc2ccccc2N(CC(=O)O)C1=O [BENAZEPRIL]	Not Active	Not Active	Not Active	Not Active	Not Active	Not Active	Not Active	Not Active									
CCCCOc1ccc(OCCCN2CCOCC2)cc1 [PRAMOXINE]			Not Active	Not Active	Not Active	Not Active	Not Active	Not Active						1030	633		
COc1cccc2c1C(=O)c1c(O)c3c(c(O)c1C2=O)C[C@@](O)(C(=O)CO)C[C@@H]3O[C@H]1C[C@H](N)[C@H](O)[C@H](C)O1 [DOXORUBICIN]	Not Active	Not Active	Not Active	Not Active	Not Active	Not Active		Not Active								34500	15700
C[C@H]1C[C@H]2[C@@H]3CCC4=CC(=O)C=C[C@]4(C)[C@@]3(Cl)[C@@H](O)C[C@]2(C)[C@@]1(O)C(=O)CO [BECLOMETHASONE]	Not Active	Not Active	Not Active	Not Active	Not Active	Not Active	Not Active	Not Active									
CCN(CC)CCOC(=O)c1ccc(N)cc1 [PROCAINE]	Not Active	Not Active	Not Active	Not Active	Not Active	Not Active	Not Active	Not Active									
O=C(O)Cc1ccccc1Nc1c(Cl)cccc1Cl [DICLOFENAC]	Not Active	Not Active	Not Active	Not Active	Not Active	Not Active	Not Active	Not Active									
CC(C)[C@H]1CC[C@H](C(=O)N[C@H](Cc2ccccc2)C(=O)O)CC1 [NATEGLINIDE]	Not Active	Not Active	Not Active	Not Active	Not Active	Not Active	Not Active	Not Active									
Nc1c(CC(=O)O)cccc1C(=O)c1ccc(Br)cc1 [BROMFENAC]	Not Active	Not Active	Not Active	Not Active	Not Active	Not Active	Not Active	Not Active									
